Data: patent US4413007A, “Pesticidal symmetrical N-substituted bis-carbamoyloximino disulfide compounds” (priority 1978, dated 1983)

Columns and labels:
[1] = test system: two-spotted mite (Tetranychus urticae Koch); assay: Mite Foliage Spray Test; type: in vivo; design: key: A: excellent control; B: partial control; C: no control; details: 500 ppm, six days
Description: (§1) Suspensions of the test compounds were prepared by dissolving one gram of compound in 50 milliliters of acetone in which had been dissolved 0.1 gram (10 percent of the weight of compound) of an alkylphenoxy polyethoxyethanol surfactant, as an emulsifying or dispersing agent. The resulting solution was mixed into 150 milliliters of water to give roughly 200 milliliters of a suspension containing the compound in finely divided form. The thus-prepared stock suspension contained 0.5 percent by weight of compound. The test concentrations in parts per million by weight employed in the tests described hereinbelow were obtained by appropriate dilutions of the stock suspension with water. The test procedures were as follows:
Adults and nymphal stages of the two-spotted mite (Tetranychus urticae Koch), reared on Tendergreen bean plants at 80±5 percent relative humidity, were the test organisms. Infested leaves from a stock culture were placed on the primary leaves of two bean plants six to eight inches in height, growing in a two-and-a-half inch clay pot. 150-200 Mites, a sufficient number for testing, transferred from the excised leaves to the fresh plants in a period of twenty four hours. Following the twenty four hour transfer period, the excised leaves were removed from the infested plants. The test compounds were formulated by diluting the stock suspension with water to give a suspension containing 500 parts of test compound per million parts of final formulation. The potted plants (one pot per compound) were placed on a revolving turntable and sprayed with 100-110 milliliters of test compound formulation by use of a DeVilbiss spray gun set at 40 psig. air pressure. This application, which lasted 25 seconds, was sufficient to wet the plants to run-off. As a control, 100-110 milliliters of a water solution containing acetone and emulsifier in the same concentrations as the test compound formulation, but containing no test compound, were also sprayed on infested plants. The sprayed plants were held at 80±5 percent relative humidity for six days, after which a mortality count of motile forms was made. Microscopic examination for motile forms was made on the leaves of the test plants. Any individual which was capable of locomotion upon prodding was considered living.
(§2) In these tests the pesticidal activity of the compounds against aphid, mite, Southern Armyworm, Bean Beetle and house fly was rated as follows: […]

[2] = test system: Mexican bean beetle (Epilachna varivestis, Muls.); assay: Mexican Bean Beetle Leaf Spray Test; type: in vivo; design: key: A: excellent control; B: partial control; C: no control; details: 500 ppm, three days
Description: as §1
Fourth instar larvae of the Mexican bean beetle (Epilachna varivestis, Muls.), reared on Tendergreen bean plants at a temperature of 80±5° F. and 50±5 percent relative humidity, were the test insects.
The test compounds were formulated by diluting the stock suspension with water to give a suspension containing 500 parts of test compound per million parts of final formulation. Potted Tendergreen bean plants of standard height and age were placed on a revolving turntable and sprayed with 100-110 milliliters of test compound formulation by use of a DeVilbiss spray gun set at 10 psig air pressure. The application, which lasted 25 seconds, was sufficient to wet plants to run-off. As a control, 100-110 milliliters of a water-acetone-emulsifier solution containing no test compound were also sprayed on infested plants. When dry, the paired leaves were separated and each was placed in a 9 centimeter Petri dish lined with moistened filter paper. Five randomly selected larvae were introduced into each dish, and the dishes were closed. The closed dishes were labeled and held at a temperature of 80±5° F. for three days. Although the larvae could easily consume the leaf within 24 to 48 hours, no more food was added. Larvae which were unable to move the length of the body, even upon stimulation, were considered dead.
as §2

In the case of CN(SSN(C)C(=O)ON=C1CSCCS1)C(=O)ON=C1CSCCS1 [N,N'-Bis-[1,4-Dithiane-2-O-(N-methylcarbamoyl)oximino]disulfide], the “2-Spotted Mite control rating” value [1] is reported as “A” and the “Mexican Bean Beetle control rating” value [2] is reported as “A”.
In the case of CC(=NOC(=O)N(C)SSN(C)C(=O)ON=C(C)SCCC#N)SCCC#N [N,N'-Bis-[1-(2-Cyanoethylthio)acetaldehyde O-(N-methylcarbamoyl)oxime]disulfide], the “2-Spotted Mite control rating” value [1] is reported as “A” and the “Mexican Bean Beetle control rating” value [2] is reported as “A”.
With CSC(C)=NOC(=O)N(C)SSN(C)C(=O)ON=C(C)SC [N,N'-Bis-[1-Methylthioacetaldehyde O-(N-methylcarbamoyl)oxime]disulfide] the “2-Spotted Mite control rating” value [1] was “C” and the “Mexican Bean Beetle control rating” value [2] was “A”.
